Laboratory results taken from the OPERA property sets (Mansouri et al. 2018).

SMILES	logP
CCN1CC(C(O)C(CC2CCCCC2)NC(=O)C(Cc2cnc[nH]2)NC(=O)C(CC(=O)N2CC(OCOC)C(OCOC)C2)Cc2ccccc2)OC1=O (stereo unspecified)	2.31
c1ccc2[nH]nnc2c1	1.44
O=Nc1ccc2ccccc2c1O	2.46
CCNc1nc(NC(C)C)nc(SC(F)F)n1	3.7
CCOC(=O)NC1=C(N2CC2)C(=O)C(NC(=O)OCC)=C(N2CC2)C1=O	-0.02
CS(=O)(=O)Nc1ccc(Cl)cc1	1.85
CC(=O)c1ccc(C(=O)O)cc1	1.61
Clc1cccc2c1CCNCC2	2.4
CCCCC1CC(C(=O)NC(C(C)O)C2OC(SC)C(O)C(O)C2O)N(C)C1 (stereo unspecified)	0.56
C=CCSc1ccccc1	3.51
Cn1c(=O)sc2ccccc21	1.98
CC(C)Nc1nc(NC(C)(C)C)nc(SC(F)F)n1	4.7
OC(c1ccc(Cl)cc1)(c1ccc(Cl)cc1)C1CC1	5.5
Nc1nc(N)nc(-c2ccc(F)cc2)n1	1.61
CC1(C)C(C(=O)OC(C#N)c2cccc(Oc3ccccc3)c2)C1(C)C (stereo unspecified)	5.7
CC(C)(C)c1cc(O)ccc1[N+](=O)[O-]	3.65
C=C1C(=O)OC2CC(C)C3C=CC(=O)C3(C)CC12 (stereo unspecified)	1.17
CC(=O)OCC(=O)[C@@]12OC(C)(C)O[C@@H]1C[C@H]1[C@@H]3C[C@H](F)C4=CC(=O)C=C[C@]4(C)[C@@]3(F)[C@@H](O)C[C@@]12C	3.19
CC(C)C(C)O (stereo unspecified)	1.28
C=C[C@@]12COC(=O)C(=C)[C@@H]1[C@H]1OC(=O)C(=C)[C@@H]1[C@@H](O)C2	0.31
O=C(O)c1ccsc1	1.5

SMILES	logP
c1ccc(N2CCOCC2)cc1	1.36
NC(=O)CCOc1ccccc1	0.8
ON=Cc1ccccc1	1.85
CCN(CC)C(=O)N(CC)N=O	1.54
C[C@H](N[C@H](CCc1ccccc1)C(=O)O)C(=O)N1CCC[C@H]1C(=O)O	-0.74
S=C=NC(c1ccccc1)(c1ccccc1)c1ccccc1	7.02
N=C(N)c1ccc(N)cc1	-0.37
CCOC(=O)C(O)c1ccccc1 (stereo unspecified)	1.53
C[C@]12CC[C@H](O)CC1=CC[C@@H]1[C@@H]2CC[C@]2(C)C(=O)CC[C@@H]12	3.23
Cc1cc(-c2ccc(N)c(C)c2)ccc1N	2.34
CN(C)C(=O)Nc1cccc(CCc2ccccc2)c1	3.21
COc1ccc(OC)c(CC(C)N)c1 (stereo unspecified)	1.72
CC(=Cc1ccccc1)[N+](=O)[O-]	2.52
Cc1ccc(C=C(C#N)C#N)cc1	2.4
CNC(=O)Oc1cccc2c1OC(C)(C)O2	1.7
CN(C)C(N(C)C)=S(I)c1cccc(Cl)c1Cl (stereo unspecified)	0.29
COCCOc1ccccc1	1.73
FC(F)(F)c1ccccc1N=C1NCCN1	1.42
c1cc2ccsc2cn1	1.74
O=C(O)Cc1ccc(O)cc1	0.75
CCCCC#N	1.12

SMILES	logP
O=C(O)C=CC=Cc1ccccc1	3.15
CCCCCC1(c2ccncc2)CCC(=O)NC1=O (stereo unspecified)	2.26
Cc1cccc(O)c1	1.96
CN(C)c1ccnnc1	-0.09
Cl[C@@H]1CCCC[C@H]1Cl	3.21
Cc1ccc(Cc2c[nH]c(NCCSCc3ccc(CN(C)C)o3)nc2=O)cn1	2.06
CCCCNc1ccc(C(=O)OCCOCCOCCOCCOCCOCCOCCOCCOCCOC)cc1	2.45
CNc1nc(-c2ccccc2)c2ccccc2n1	3.58
CCc1ccc[nH]1	1.59
COc1ccccc1OC	1.6
c1ccc2[nH]ccc2c1	2.14
Cc1ncc[nH]1	0.24
CNC(=O)Oc1ccc(Cl)cc1	2.01
Cc1ccc2c(c1)C(=O)C=CC2=O	2.1
COc1cc(CC(C)N)cc(OC)c1Br (stereo unspecified)	2.44
CC(=O)OCCc1ccccc1	2.3
Sc1ccccn1	-0.13
CCC(C)c1cc([N+](=O)[O-])cc(C(C)C)c1O (stereo unspecified)	4.19
O=P(c1ccccc1)(c1ccccc1)c1ccccc1	2.83
